According to article PMC12073635, “Synthesis of Tricyclic and Tetracyclic Lactone Derivatives of Thieno[2,3-b]pyrazine or Thieno[2,3-b]quinoline: Preliminary Antitumor and Antiparasitic Activity Evaluation” (Molecules, 2025):

Legend:
[1] = test system: NCI-H460 (non-small cell lung cancer) cells; experiment: SRB cell growth inhibition assay, NCI-H460; assay type: cell-based; conditions: Homo sapiens, 72 h, mean ± standard deviation
Method: (§1) The antitumor potential of the Sonogashira coupling products 2, tricyclic lactones 3 and 5, and tetracyclic lactones 7 was evaluated using the sulforhodamine B (SRB) assay against five human tumor cell lines: colorectal adenocarcinoma (CaCo-2), breast adenocarcinoma (MCF-7), gastric adenocarcinoma (AGS), cervical carcinoma (HeLa), and non-small cell lung cancer (NCI-H460). A primary pig liver cell culture (PLP2) was used to assess the toxicity of compounds.
(§2) The human tumor cell lines used were CaCo-2 (colorectal adenocarcinoma), MCF-7 (breast adenocarcinoma), AGS (gastric adenocarcinoma), HeLa (cervical carcinoma), NCI-H460 (lung carcinoma). Non-tumor cell lines were also tested: PLP2 (primary pig liver culture). All the cell lines were maintained in RPMI-1640 medium supplemented with 10% fetal bovine serum, glutamine (2 mM), penicillin (100 U/mL), and streptomycin ([…]), with the exception of PLP2, which was maintained in DMEM medium supplemented with fetal bovine serum (10%), glutamine and antibiotics. The culture flasks were incubated at 37 °C and with 5% CO2, under a humid atmosphere. The cells were used only when they had 70 to 80% confluence. A known mass of each compound was dissolved in DMSO/H2O (1:1, 1 mL), in order to obtain the stock solutions with a concentration of 1 mM. […] Each compound concentration (10 μL) was incubated with the cell suspension (190 μL) of the cell lines tested in 96-well microplates for 72 h. The microplates were incubated at 37 °C and with 5% CO2 in a humid atmosphere after checking the adherence of the cells. All cell lines were tested at a concentration of 10,000 cells/well. After the incubation period, the cells were treated: TCA (10% w/v; 100 μL) was previously cooled, and plates were incubated for 1 h at 4 °C, washed with water, and, after drying, a SRB solution (0.057%, m/v; 100 μL) was added and left to stand at room temperature for 30 min. To remove non-adhered SRB, plates were washed three times with a solution of acetic acid (1% v/v) and placed to dry. Finally, an adhered SRB was solubilized with Tris (10 mM, 200 μL) and the absorbance at a wavelength of 540 nm was read in the Biotek ELX800 microplate reader. The results obtained by the SRB assay were expressed regarding the concentration compounds that can inhibit cell growth by 50%—GI50. Doxorubicin was used as a positive control.

[2] = test system: CaCo-2 (colorectal adenocarcinoma) cells; experiment: SRB cell growth inhibition assay, CaCo-2; assay type: cell-based, human; conditions: Homo sapiens, Caco-2, 72 h, mean ± standard deviation
Method: as §1, §2

[3] = test system: HeLa (cervical carcinoma) cells; experiment: SRB cell growth inhibition assay, HeLa; assay type: cell-based; conditions: Homo sapiens, 72 h, mean ± standard deviation
Method: as §1, §2

[4] = test system: MCF-7 (breast adenocarcinoma) cells; experiment: SRB cell growth inhibition assay, MCF-7; assay type: cell-based, human; conditions: Homo sapiens, MCF7, 72 h, mean ± standard deviation
Method: as §1, §2

[5] = test system: AGS (gastric adenocarcinoma) cells; experiment: SRB cell growth inhibition assay, AGS; assay type: cell-based; conditions: Homo sapiens, 72 h, mean ± standard deviation
Method: as §1, §2

[6] = SRB assay, toxicity in non-tumor PLP2 cells; assay type: cell-based, pig; conditions: PLP2 primary pig liver cells (non-tumor); non-tumor primary pig liver cells, SRB assay, 72 h, mean ± standard deviation
Method: as §1, §2

[7] = MTT cytotoxicity in THP-1-derived macrophages; assay type: cell-based, human; conditions: human, THP-1-derived macrophages (PMA-differentiated); MTT, 72 h, tested 100 to 12.5 μM; read-out: CC50 Interval in THP-1-Derived Macrophages
Method: Human leukemia cell line, THP-1 (ATCC® TIB-202™, Manassas, VA, USA) was cultured in RPMI-1640 medium supplemented with 10% heat-inactivated Fetal Bovine Serum (FBS), 2 mM L-glutamine, 100 UI/mL penicillin/streptomycin, 20 mM HEPES. The cell line was maintained in a humidified incubator at 37 °C and 5% CO2 by subculture every three days in 20 mL of media at a concentration of 1 × 10^5/mL in a T75 flask. All cell culture reagents were purchased from Lonza-Bioscience (Morrisville, NC, USA).
The cytotoxicity effect of compounds on THP-1-derived macrophages was assessed by the colorimetric MTT assay (3-(4,5-dimethylthiazol-2-yl)-2,5-diphenyl tetrazolium bromide). Briefly, THP-1 cells were suspended in RPMI complete medium at a density of 1 × 10^6 cells/mL and 100 μL/well were seeded in a 96-well plate and were differentiated into macrophages by addition of 40 ng/mL of phorbol-myristate 13-acetate (PMA, Sigma, Saint Louis, MI, USA) for 24 h followed by replacement with fresh medium for more 24 h. Subsequently, cells were incubated with 100 μL of compounds ranging from 100 to 12.5 μM after dilution in the RPMI complete medium. Each condition was carried out in quadruplicate. After 72 h of incubation at 37 °C 5% CO2, the medium was removed and 200 μL of 0.5 mg/mL MTT solution diluted in RPMI was added. Plates were incubated for an additional 4 h. Then 160 μL of media was removed and the same volume of 2-propanol was added. Absorbance was read at 570 nm using a Synergy 2 Multi-Mode Reader (Biotek, Winooski, VT, USA). Cytotoxicity was evaluated by the determination of the CC50 value (drug concentration that reduced the percentage of viable cells in 50%) and calculated by non-linear regression analysis using GraphPad Prism version 8.1.1 for Windows (GraphPad Software, San Diego, CA, USA). The results represent the average of at least three independent experiments. For each compound, the Selectivity Index (SI) was calculated as the ratio between cytotoxicity in THP-1 (CC50, 72 h) and activity against parasites (IC50, 72 h).

[8] = test system: T. brucei Lister 427 bloodstream forms; experiment: Resazurin-based anti-T. brucei assay; assay type: cell-based, Trypanosoma brucei; conditions: Trypanosoma brucei, 72 h, dose-response
Method: The antiparasitic activity of compounds 2c–g, 3a, 5a and 7 was evaluated at a single concentration of 20 μM, against Trypanosoma brucei (T. brucei) and Leishmania infantum (L. infantum) promastigotes. The results are shown in Table 9 together with the cytotoxicity data (CC50) in THP-1–derived macrophages cells.
T. brucei Lister 427 bloodstream forms were grown in a humidified incubator at 37 °C, 5% CO2 in complete HMI-9 medium 1 supplemented with 10% heat-inactivated Fetal Bovine Serum (FBS) and 100 UI/mL penicillin/streptomycin. Parasites maintenance was performed in T25 ventilated flasks by subpassage at a concentration of 1 × 10^4/mL every 2 days on T25 ventilated flasks.
The efficacy of compounds against T. brucei bloodstream forms was evaluated using a modified resazurin-based assay previously described in the literature. Parasites were added to 100 µL of serial dilutions of compounds in supplemented complete medium at a cell density of 5 × 10^3/mL for. As a quality control, a dose–response curve for the antitrypanosomal pentamidine was included in all the assays. The final volume of the assay is 200 µL/well. Each condition was carried out in duplicate. Following 72 h incubation at the specific conditions for T. brucei, 20 µL of a 0.5 mM resazurin solution was added and plates were incubated for a further 4 h under the same conditions. Fluorescence was measured at 544 nm and 590 nm excitation and emission wavelength, respectively, using a Synergy 2 Multi-Mode Reader (Biotek, Winooski, VT, USA). Results were shown as % of parasite growth inhibition compared to control (untreated parasites) and represent the average of at least three independent experiments. The effect was evaluated by the determination of the IC50 value (concentration required to inhibit growth in 50%) and calculated by non-linear regression curves using GraphPad Prism version 8.1.1 for Windows (GraphPad Software, San Diego CA, USA).

Structure (SMILES)	GI50 [1]	GI50 [2]	GI50 [3]	GI50 [4]	GI50 [5]	GI50 at 72 h [6]	CC50 at 72 h [7]	IC50 [8]
COC(=O)c1sc2nccnc2c1C#Cc1ccccc1 [Compound 2a, Methyl 7-(phenylethynyl)thieno[2,3-b]pyrazine-6-carboxylate]	91.5 ± 9.12 µM	70 ± 3.78 µM	68.7 ± 3.05 µM	94.8 ± 6.43 µM	86.8 ± 4.99 µM	> 125 µM		
COC(=O)c1sc2nccnc2c1C#Cc1ccc(N)cc1 [Compound 2b, Methyl 7-[(4-aminophenyl)ethynyl]thieno[2,3-b]pyrazine-6-carboxylate]	48.6 ± 4.31 µM	59.2 ± 1.76 µM	47.9 ± 3.58 µM	49.7 ± 2.41 µM	51.4 ± 2.87 µM	> 125 µM		
O=c1oc(-c2ccccc2)cc2c1sc1nccnc12 [Compound 3a, 8-phenyl-6H-pyrano[4′,3′:4,5]thieno[2,3-b]pyrazin-6-one]	36.5 ± 0.69 µM	79.9 ± 3.56 µM	49.7 ± 2.69 µM	77.5 ± 1.23 µM	56.4 ± 3.76 µM	> 125 µM	50 to 100 µM	
Nc1ccc(-c2cc3c(sc4nccnc43)c(=O)o2)cc1 [Compound 3b, 8-(4-aminophenyl)-6H-pyrano[4′,3′:4,5]thieno[2,3-b]pyrazin-6-one]	82.7 ± 7.41 µM	67.5 ± 4.19 µM	58.1 ± 4.29 µM	75.7 ± 6.48 µM	74.3 ± 5.96 µM	> 125 µM		
O=c1oc(-c2ccc(F)cc2)cc2c1sc1nccnc12 [Compound 3c, 8-(4-fluorophenyl)-6H-pyrano[4′,3′:4,5]thieno[2,3-b]pyrazin-6-one]	72.4 ± 6.24 µM	44.1 ± 0.93 µM	48.4 ± 3.19 µM	56.1 ± 3.56 µM	51.5 ± 3.29 µM	> 125 µM		
COc1ccc(-c2cc3c(sc4nccnc43)c(=O)o2)cc1 [Compound 3d, 8-(4-Methoxyphenyl)-6H-pyrano[4′,3′:4,5]thieno[2,3-b]pyrazin-6-one]	45.3 ± 3.27 µM	90.5 ± 6.47 µM	50.3 ± 4.79 µM	58.6 ± 1.86 µM	56.2 ± 3.02 µM	> 125 µM		
Cc1ccc(-c2cc3c(sc4nccnc43)c(=O)o2)cc1 [Compound 3e, 8-(p-Tolyl)-6H-pyrano[4′,3′:4,5]thieno[2,3-b]pyrazin-6-one]	29.3 ± 1.47 µM	28.8 ± 1.85 µM	38.2 ± 3.29 µM	47.6 ± 4.5 µM	43.8 ± 1.76 µM	90.5 ± 6.47 µM		
O=c1oc(-c2ccsc2)cc2c1sc1nccnc12 [Compound 3g, 8-(thiophen-3-yl)-6H-pyrano[4′,3′:4,5]thieno[2,3-b]pyrazin-6-one]	44 ± 3.28 µM	52.5 ± 1.31 µM	39 ± 1.78 µM	48.6 ± 2.15 µM	45.3 ± 0.89 µM	> 125 µM		
O=c1oc(-c2ccccc2)c(Br)c2c1sc1nccnc12 [Compound 5b, 9-Bromo-8-phenyl-6H-pyrano[4′,3′:4,5]thieno[2,3-b]pyrazin-6-one]	48.3 ± 1.08 µM	18.3 ± 0.92 µM	29.1 ± 2.81 µM	45.1 ± 1.74 µM	32.8 ± 1.56 µM	89.8 ± 1.79 µM		
O=c1oc(-c2ccc(Br)cc2)c(-c2ccc(Br)cc2)c2c1sc1nc3ccccc3cc12 [Compound 7c, 3,4-Bis(4-bromophenyl)-1H-pyrano[4′,3′:4,5]thieno[2,3-b]quinolin-1-one]	108 ± 5.44 µM	87.8 ± 8.01 µM	77.1 ± 1.12 µM	90.3 ± 4.16 µM	104 ± 9.12 µM	> 125 µM	< 12.5 µM	
Cc1c(-c2ccccc2)oc(=O)c2sc3nc4ccccc4cc3c12 [Compound 7f, 4-Methyl-3-phenyl-1H-pyrano[4’,3’:4,5]thieno[2,3-b]quinolin-1-one]	92.1 ± 3.89 µM	87 ± 3.51 µM	71.5 ± 2.36 µM	76.4 ± 2.58 µM	83.4 ± 6.27 µM	> 125 µM	12.5 to 50 µM	
CCCCCCCCCCCCCCCCOP(=O)([O-])OCC[N+](C)(C)C [Milefosine, miltefosine, reference compound]								2.9 µM
COc1cccc2c1C(=O)c1c(O)c3c(c(O)c1C2=O)C[C@@](O)(C(=O)CO)C[C@@H]3O[C@H]1C[C@H](N)[C@H](O)[C@H](C)O1 [doxorubicin, Doxorubicin, reference compound]	0.07 µM	0.04 µM	0.05 µM	0.05 µM	0.03 µM	0.1 µM		
